This assay has as its target T1, human oxytocin receptor (Homo sapiens, UniProt P30559).
T1 construct: host or cells: CHO cells, stably transfected (pcDNA3.1 vector)
T1 sequence (P30559 1-389): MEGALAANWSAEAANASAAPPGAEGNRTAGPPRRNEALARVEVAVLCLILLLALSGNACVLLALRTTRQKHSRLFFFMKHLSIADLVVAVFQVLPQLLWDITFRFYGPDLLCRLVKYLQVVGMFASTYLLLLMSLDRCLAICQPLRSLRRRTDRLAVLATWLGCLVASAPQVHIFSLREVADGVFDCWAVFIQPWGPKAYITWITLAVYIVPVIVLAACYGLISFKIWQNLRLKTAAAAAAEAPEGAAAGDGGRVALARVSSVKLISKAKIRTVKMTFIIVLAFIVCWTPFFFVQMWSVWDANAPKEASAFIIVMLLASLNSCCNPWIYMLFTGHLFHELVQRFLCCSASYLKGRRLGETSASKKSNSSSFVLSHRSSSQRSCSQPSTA
Briefly: Oxytocin binding in CHO cell membranes expressing human oxytocin receptors ([3H]oxytocin radioligand binding). The settings on record: 100 nM, read-out: OT % inhibition @ 100 nM. As for the experimental part: Oxytocin Binding in Chinese Hamster Ovary Cell Membranes Expressing Human Oxytocin Receptors
Cell Culture medium (e.g. 30 mL for 1:30 split) is immediately added and mixed well to inactivate trypsin. 1 mL of detached cells is added to new culture flasks containing fresh Cell Culture medium (e.g. into 25 mL per T-150 flask), and mixed gently. The cells are incubated at 37° C. in 5% CO2. The medium is changed at 3 to 4 days interval (or as appropriate). […] All steps are done under sterile conditions.
The cells are washed twice gently with Hank's Balanced Salt solution (e.g., use 10 mL per T-150 flask). […] The contents are transferred to centrifuge tubes (50 mL size) kept in ice bath. All subsequent steps are done at 4° C. The tubes are centrifuged at 300×g for 15 min (1380 rpm on SORVAL, Model RT6000D, using rotor for 50 mL tubes). The supernatant is discarded and the cells suspended in homogenizing buffer (10 mM Tris-HCl containing 0.25 M sucrose and 1 mM EDTA, pH 7.4) ensuring that the volume of the buffer is about ten times the volume of the cell pellet. The cells are pooled into a centrifuge tube (50 mL) and homogenized with a Polytron at setting 6 for 10 sec. The homogenate is transferred into a Potter-Elvjehm homogenizer and homogenized with 3 strokes. The homogenate is centrifuged at 1500×g for 10 min at 4° C. (3100 rpm using SORVAL, model RT6000D, using a rotor for 50 mL tubes). The pellet is discarded. The supernatant is centrifuged at 100,000×g for 60 min. at 4° C. (Beckman L8-80M ultracentrifuge; spin at 37,500 rpm with rotor type 70 Ti for 50 mL tubes; 38,000 rpm with rotor type 8OTi for 15 mL tubes; or 35,800 rpm with rotor type 45Ti). The supernantant is discarded and the pellet suspended in 3 to 4 mL of Tris buffer (50 mM TRIS-HCl, pH 7.4). The protein content is estimated by the Bradford or Lowry method. The volume of the membrane suspension is adjusted with the membrane buffer (50 mM Tris-HCl containing 0.1% BSA and 0.1 mM PMSF) to give 3.0 mg/mL (or as appropriate) of protein. The membranes are aliquoted and stored at −70° C.
In wells of a 96-well format microtiter plate, is added 90, 110 or 130 μL (to make up a final volume of 200 μL) of assay buffer containing 50 mM of Tris-HCl (pH 7.4), […], 1 mg % aprotinin, 1 mg % leupeptin, 2 mg % 1,10-phenanthroline, 10 mg % trypsin inhibitor, and 0.1 mM PMSF. The inhibitors are added on the day of the experiment. The components are mixed at room temperature, and then kept in ice bath following adjustment of the pH to 7.4. […] For oxytocin and other peptide ligands, 20 μL of 50% DMSO is added and the assay buffer volume is adjusted accordingly. To each well is added 50 μL of frozen membrane suspension thawed immediately prior to use and diluted in assay buffer to the required concentration (equivalent to 25 to 50 μg of protein/well as needed). 20 μL of 8 nM [^3H]oxytocin in the assay buffer, prepared just before use is added and incubated at room temperature for 60 min. shaking the plate on a mechanical shaker for the first 15 min. The incubation is stopped by rapid filtration of the plate contents followed by washing with ice-cold buffer (50 mM Tris-HCl, pH 7.4) using a cell harvester (Tomtek and Printed filtermat-B filter paper). The filter paper is thoroughly dried (7–12 min. in a microwave oven) and impregnated with MeltiLex B/H melt-on scintillation wax sheets and the radioactivity counted in a betaplate scintillation counter.
Binding data is either reported as percent inhibition at a certain concentration or if an IC50 was calculated, as a nanomolar concentration.
`COc1cc(-c2ccccc2C)c(Cl)cc1C(=O)N1Cc2ccc(C(=O)N(C)CCc3ccncc3)n2Cc2ccccc21` [Example 132, 10-[(6-Chloro-3-methoxy-2′-methyl-[1,1′-biphenyl]-4-yl)carbonyl]-N-methyl-N-[2-(4-pyridinyl)ethyl]-10,11-dihydro-5H-pyrrolo[2,1-c][1,4]benzodiazepine-3-carboxamide]: the inhibition (in general, the change of the read-out against control, counted positive when it falls) at 0.1 µM was 99%. Consider `COc1cc(-c2ccccc2C)c(Cl)cc1C(=O)N1Cc2ccc(C(=O)NCCc3ccccn3)n2Cc2ccccc21` [Example 55, 10-[(6-Chloro-3-methoxy-2′-methyl-[1,1′-biphenyl]-4-yl)carbonyl]-N-[2-(2-pyridinyl)ethyl]-10,11-dihydro-5H-pyrrolo[2,1-c][1,4]benzodiazepine-3-carboxamide], for which the inhibition at 0.1 µM was determined as 50%. Take `COc1ccccc1-c1ccc(C(=O)N2Cc3ccc(C(=O)NCc4cccnc4)n3Cc3ccccc32)cc1` [Example 39, 10-[(2′-Methoxy-[1,1′-biphenyl]-4-yl)carbonyl]-N-(3-pyridinylmethyl)-10,11-dihydro-5H-pyrrolo[2,1-c][1,4]benzodiazepine-3-carboxamide]: the inhibition at 0.1 µM was determined as 35%.

`COc1cc(C(=O)N2Cc3ccc(C(=O)N(C)CCc4ccncc4)n3Cc3ccccc32)ccc1-c1ccccc1C` [Example 131, 10-[(2-Methoxy-2′-methyl-[1,1′-biphenyl]-4-yl)carbonyl]-N-methyl-N-[2-(4-pyridinyl)ethyl]-10,11-dihydro-5H-pyrrolo[2,1-c][1,4]benzodiazepine-3-carboxamide]: the inhibition at 0.1 µM was 99%.

In the case of `COc1ccccc1-c1ccc(C(=O)N2Cc3ccc(C(=O)N4CCCCC4c4cccnc4)n3Cc3ccccc32)cc1C` (stereo not drawn) [Example 138, {10-[(2′-Methoxy-2-methyl-[1,1′-biphenyl]-4-yl)carbonyl]-10,11-dihydro-5H-pyrrolo[2,1-c][1,4]benzodiazepin-3-yl}[2-(3-pyridinyl)-1-piperidinyl]methanone], the inhibition at 0.1 µM was 97%. Under `COc1cc(C(=O)N2Cc3ccc(C(=O)N(C)Cc4cccnc4)n3Cc3ccccc32)ccc1-c1ccccc1C` [Example 106, 10-[(2-Methoxy-2′-methyl-[1,1′-biphenyl]-4-yl)carbonyl]-N-methyl-N-(3-pyridinylmethyl)-10,11-dihydro-5H-pyrrolo[2,1-c][1,4]benzodiazepine-3-carboxamide] stands 98%. Under `Cc1ccccc1-c1ccc(C(=O)N2Cc3ccc(C(=O)N4CCN(c5ccncc5)CC4)n3Cc3ccccc32)cc1` [Example 117, {10-[(2′-Methyl-[1,1′-biphenyl]-4-yl)carbonyl]-10,11-dihydro-5H-pyrrolo[2,1-c][1,4]benzodiazepin-3-yl}[4-(4-pyridinyl)-1-piperazinyl]methanone] stands 13%; under `COc1ccccc1-c1ccc(C(=O)N2Cc3ccc(C(=O)N4CCN(c5ccncc5)CC4)n3Cc3ccccc32)cc1OC` [Example 122, {10-[(2,2′-Dimethoxy-[1,1′-biphenyl]-4-yl)carbonyl]-10,11-dihydro-5H-pyrrolo[2,1-c][1,4]benzodiazepin-3-yl}[4-(4-pyridinyl)-1-piperazinyl]methanone], 61%; under `COc1ccccc1-c1ccc(C(=O)N2Cc3ccc(C(=O)N4CCCCC4c4cccnc4)n3Cc3ccccc32)cc1OC` (stereo not drawn) [Example 141, {10-[(2,2′-Dimethoxy-[1,1′-biphenyl]-4-yl)carbonyl]-10,11-dihydro-5H-pyrrolo[2,1-c][1,4]benzodiazepin-3-yl}[2-(3-pyridinyl)-1-piperidinyl]methanone], 96%. Next, `COc1cc(C(=O)N2Cc3ccc(C(=O)NCCc4ccccn4)n3Cc3ccccc32)ccc1-c1ccccc1C` [Example 54, 10-[(2-Methoxy-2′-methyl-[1,1′-biphenyl]-4-yl)carbonyl]-N-[2-(2-pyridinyl)ethyl]-10,11-dihydro-5H-pyrrolo[2,1-c][1,4]benzodiazepine-3-carboxamide]: 55%; `COc1cc(C(=O)N2Cc3ccc(C(=O)NCc4cccnc4)n3Cc3ccccc32)ccc1-c1ccccc1C` [Example 41, 10-[(2-Methoxy-2′-methyl-[1,1′-biphenyl]-4-yl)carbonyl]-N-(3-pyridinylmethyl)-10,11-dihydro-5H-pyrrolo[2,1-c][1,4]benzodiazepine-3-carboxamide]: 41%; `COc1cccc(-c2cc(OC)c(C(=O)N3Cc4ccc(C(=O)NCc5ccccn5)n4Cc4ccccc43)cc2Cl)c1` [Example 30, 10-[(6-Chloro-3,3′-dimethoxy-[1,1′-biphenyl]-4-yl)carbonyl]-N-(2-pyridinylmethyl)-10,11-dihydro-5H-pyrrolo[2,1-c][1,4]benzodiazepine-3-carboxamide]: 25%. As for `O=C(NCCc1ccccn1)c1ccc2n1Cc1ccccc1N(C(=O)c1ccc(-c3cccc4ccccc34)cc1Cl)C2` [Example 60, 10-[2-Chloro-4-(naphthalen-1-yl)benzoyl]-N-[2-(2-pyridinyl)ethyl]-10,11-dihydro-5H-pyrrolo[2,1-c][1,4]benzodiazepine-3-carboxamide], the inhibition at 0.1 µM stood at 11%. Under `CN(CCc1ccncc1)C(=O)c1ccc2n1Cc1ccccc1N(C(=O)c1ccc(-c3cccc4ccccc34)cc1Cl)C2` [Example 136, 10-[2-Chloro-4-(naphthalen-1-yl)benzoyl]-N-methyl-N-[2-(4-pyridinyl)ethyl]-10,11-dihydro-5H-pyrrolo[2,1-c][1,4]benzodiazepine-3-carboxamide] stands 44%; under `Cc1cc(C(=O)N2Cc3ccc(C(=O)NCc4cccnc4)n3Cc3ccccc32)ccc1-c1ccccc1C(F)(F)F` [Example 48, 10-{[2-Methyl-2′-trifluoromethyl-[1,1′-biphenyl]-4-yl]carbonyl}-N-(3-pyridinylmethyl)-10,11-dihydro-5H-pyrrolo[2,1-c][1,4]benzodiazepine-3-carboxamide], 15%; under `COc1cccc(-c2ccc(C(=O)N3Cc4ccc(C(=O)N(C)CCc5ccncc5)n4Cc4ccccc43)cc2OC)c1` [Example 135, 10-[(2,3′-Dimethoxy-[1,1′-biphenyl]-4-yl)carbonyl]-N-methyl-N-[2-(4-pyridinyl)ethyl]-10,11-dihydro-5H-pyrrolo[2,1-c][1,4]benzodiazepine-3-carboxamide], 96%. Regarding `COc1cccc(-c2ccc(C(=O)N3Cc4ccc(C(=O)NCc5ccccn5)n4Cc4ccccc43)cc2OC)c1` [Example 33, 10-[(2,3′-Dimethoxy-[1,1′-biphenyl]-4-yl)carbonyl]-N-(2-pyridinylmethyl)-10,11-dihydro-5H-pyrrolo[2,1-c][1,4]benzodiazepine-3-carboxamide], the inhibition at 0.1 µM amounted to 42%. `COc1ccccc1-c1ccc(C(=O)N2Cc3ccc(C(=O)NCCc4ccccn4)n3Cc3ccccc32)cc1` [Example 52, 10-[(2′-Methoxy-[1,1′-biphenyl]-4-yl)carbonyl]-N-[2-(2-pyridinyl)ethyl]-10,11-dihydro-5H-pyrrolo[2,1-c][1,4]benzodiazepine-3-carboxamide]: the inhibition at 0.1 µM worked out at 51%.

These data come from patent US7064120B2, “Tricyclic pyridyl carboxamides and derivatives thereof tocolytic oxytocin receptor antagonists” (Wyeth, priority 2001, dated 2006).
